According to patent publication US12559863B2, “Macrocyclic modulators of disease associated protein misfolding and aggregation” (RESQ BIOTECH, priority 2017, dated 2026):
Where a SMILES comes first, the peptide text is derived from it.

Experiments:
[1] = tested on: C. elegans strain CL4176 (human Aβ42, heat-inducible); test: Paralysis assay in C. elegans CL4176; type: in vivo, Caenorhabditis elegans; conditions: synthetic AβC5-34 10 μM, AβC5-116 5 μM; temperature up-shift
Experimental: We followed standard procedures for C. elegans strains maintenance at 16° C. The following strains were used: CL2179: dvIs179 [myo-3p::GFP::3′UTR(long)+rol-6(su1006)] (available on the world wide web at: cgc.cbs.umn.edu/strain.php?id=26134); CL2331: dvIs37 [myo-3p::GFP::Aβ(3-42)+rol-6(su1006)] (available on the world wide web at: cgc.cbs.umn.edu/strain.php?id=26135); CL4176: smg-1(cc546) I; dvIs27 [myo-3::Aβ(1-42)-let 3′UTR(pAF29); pRF4 (rol-6(su1006)] (available on the world wide web at: cgc.cbs.umn.edu/strain.php?id=7663).
For treatments with synthetic cyclic peptides, nematodes were exposed to the indicated AβC5-34 and AβC5-116 concentrations per NGM plate. Stock solutions of the two chemically synthesized pure peptides were obtained after dissolution in DMSO and stored at −20° C. The appropriate amount of compound or DMSO (control cultures) was added onto an E. coli OP50 bacterial lawn. […] Treatment and control plates were handled, scored and assayed in parallel.
Synchronized CL4176 animals (150-300 animals per condition) were transferred to NGM plates containing synthetic AβC5-34, AβC5-116 or 0.26% DMSO at 16° C. for 48 h before transgene induction via temperature up-shift to 25° C. […] Treatment and control plates were handled, scored and assayed in parallel. […] Nematodes were scored as paralyzed upon failure to move their half end-body upon prodding. […]

Aβ40 [2] = target: T1, Aβ40 (Homo sapiens, UniProt P05067); test: Circular dichroism of Aβ40 with cyclic peptide; type: biochemical; conditions: 50 μM Aβ, 33° C., 30 d
T1 construct: The main product of APP cleavage consists of 40 amino acids (Aβ40); purchased Eurogentec, Belgium; host or cells: chemical synthesis
Experimental: Synthetic Aβ40 and Aβ42 peptides were gently dissolved without vortexing in doubly deionized water to a final concentration of 100 μM. These solutions were then diluted by PBS addition (10 mM, pH 7.33) to achieve a final Aβ concentration of 50 μM.
Appropriate amounts of synthetic cyclic peptides were added to either 40 μM SOD1(A4V) or 50 μM Aβ solutions at the desired cyclic peptide:target protein molar ratio. SOD1(A4V) structural changes were monitored for 90 d at 25° C., under quiescent conditions. Aβ structural changes were monitored for 30 d at 33° C. under quiescent conditions. CD spectra in the range 190-260 nm were recorded on a JASCO J-715 spectropolarimeter (Jasco Co., Japan) using quartz cuvettes with 1 mm path length. Each reported spectrum is the average of three scans at a rate of 100 nm·min^−1 and a resolution of 0.5 nm.

Aβ40 [3] = target: T1, Aβ40; test: Thioflavin T dye-binding assay of Aβ40; type: biochemical; conditions: 30-d aged CD solutions
Experimental: For Aβ ThT staining, 100 μL of the 30-d aged 50 μM CD solutions were diluted in PBS (10 mM, pH 7.33) to form a 25 μM Aβ solution with 200 μL final volume. 2.5 μL from a stock solution of ThT (Sigma-Aldrich, USA) in PBS (10 mM, pH 7.33) was added to the prepared Aβ solutions to achieve a final ThT concentration of 5 μM. The mixture was agitated adequately by pipetting and immediately thereafter, fluorescence was monitored with excitation at 440 nm (EM slit=2.5 nm, PMT Voltage 700 V, response 0.4 s) using a HITACHI F-2500 (Japan) spectrofluorometer.

[4] = tested on: glioblastoma cell line U87MG; type: cell-based, human; conditions: for Aβ-induced toxicity in U87MG: MTT
Experimental: The utilized U87MG cells (human glioblastoma-astrocytoma, epithelial-like cell line) were kind a gift from Dr. Maria Paravatou-Petsotas, Radiobiology Laboratory, Institute of Nuclear & Radiological Sciences & Technology, Energy & Safety, NCSR “Demokritos”. The utilized media/agents for U87MG cell cultures were obtained from Biochrom AG (Germany) and PAA Laboratories (USA). U87MG cells were grown in Dulbecco's modified Eagle medium (DMEM), supplemented with 10% fetal bovine serum (FBS), 2.5 mM L-glutamine, 1% penicillin/streptomycin at 37° C. and 5% CO2. For MTT cytotoxicity studies, cells were plated at a density of 2×10^4 cells per well in 96-well plates and incubated at 37° C. for 24 h to allow cells to attach. The medium was subsequently removed and cells were rendered quiescent by incubation in serum-free medium for 24 h. For cell viability measurements cells were subsequently treated with the indicated concentrations of Aβ in the presence or absence of synthetic peptides, as described in Materials and Methods.
Solutions of synthetic Aβ40 or Aβ42 (10 μM) in PBS, preincubated at 37° C. (3 d for Aβ40 solutions and 1 d for Aβ42 solutions) in the presence or absence of synthetic cyclic peptides (1:1 and 2:1 ratio of peptides:Aβ), were diluted with fresh medium and transferred into wells at a 1 μM final Aβ concentration. Cell viability was determined using the MTT assay. MTT (3-[4,5-dimethylthiazol-2-yl]-2,5-diphenyl tetrazolium bromide) was purchased from Applichem (Germany). After 24 h of exposure to Aβ solutions, 100 μL of a 0.5 mg/mL stock solution of MTT in Neurobasal-A was added to each well of primary hippocampal neurons followed by a 3 h incubation at 37° C., while 100 μL of a 1 mg/mL stock solution of MTT in DMEM complete medium was added to each well of U87MG cells followed by a 4 h incubation at 37° C. The medium was then removed and the cells were diluted in DMSO. The relative formazan concentration was measured by determination of the absorbance at 540 nm using a plate reader (Tecan, Austria). Results were expressed as the percentage of MTT reduction, assuming that the absorbance of control (untreated) cells was 100%, and represent the mean of three independent experiments with six replicate wells for each condition. Induced cell death was also qualitatively examined by phase-contrast microscopy (Carl Zeiss, Axiovert 25 CFL, Germany) using the above solutions. In each run, the effect of solutions of plain synthetic peptides and plain Aβ40 or Aβ42 was independently checked to serve as internal control.

Question: With C[C@@H]1NC(=O)[C@H](CO)NC(=O)[C@H]([C@@H](C)O)NC(=O)[C@@H]2CCCN2C(=O)[C@H](CO)NC1=O [AβC5-34, cyclo-SASPT] (cyclo(ASPTS)) as the molecule, how does the “appearance of paralysis phenotype, CL4176” value [1] read?
Answer: The value was “significant delay”.

Question: And the “effect on aggregation process of Aβ40 (CD)” value (Aβ40 [2])?
Answer: Its value is “did not have the same effect and resulted in the appearance of a low-intensity negative peak”.

Question: What about the “Aβ40 fibril formation (ThT)” value (Aβ40 [3]) of the same molecule?
Answer: Its value is “almost unaffected”.

Question: What about the “growth-promoting effects or cytotoxicity of peptide on its own” value [4] of the same molecule?
Answer: The value was “did not exhibit general growth-promoting effects or considerable cytotoxicity”.

Question: And the “Aβ-induced toxicity in U87MG” value [4]?
Answer: The value was “toxicity-suppressing effects”.

Question: What does the source list for C[C@@H]1NC(=O)[C@H]([C@@H](C)O)NC(=O)[C@H](CCCNC(=N)N)NC(=O)[C@H](CC(=O)O)NC(=O)[C@H](Cc2ccccc2)NC1=O [AβC5-116, cyclo-TAFDR] (cyclo(AFDRT))?
Answer: appearance of paralysis phenotype, CL4176 [1]: significant delay; effect on aggregation process of Aβ40 (CD) (Aβ40 [2]): strongly inhibit the aggregation of Aβ40; Aβ40 fibril formation (ThT) (Aβ40 [3]): reduced; growth-promoting effects or cytotoxicity of peptide on its own [4]: did not exhibit general growth-promoting effects or considerable cytotoxicity; Aβ-induced toxicity in U87MG [4]: toxicity-suppressing effects

Question: What does the source list for cyclo-TWSVW (cyclic) [SOD1C5-4]?
Answer: effect on aggregation process of Aβ40 (CD) (Aβ40 [2]): did not have any effect; Aβ40 fibril formation (ThT) (Aβ40 [3]): did not have any effect
